{
  "source": "paper PMC9013686",
  "about": "“Inter-individual variation in chlorpyrifos toxicokinetics characterized by physiologically based kinetic (PBK) and Monte Carlo simulation comparing human liver microsome and Supersome™ cytochromes P450 (CYP)-specific kinetic data as model input” (Archives of Toxicology, 2022)",
  "key": {"CYP2B6": {"target": "T1, CYP2B6 (Homo sapiens, UniProt P20813)", "T1 sequence (P20813 1-491)": "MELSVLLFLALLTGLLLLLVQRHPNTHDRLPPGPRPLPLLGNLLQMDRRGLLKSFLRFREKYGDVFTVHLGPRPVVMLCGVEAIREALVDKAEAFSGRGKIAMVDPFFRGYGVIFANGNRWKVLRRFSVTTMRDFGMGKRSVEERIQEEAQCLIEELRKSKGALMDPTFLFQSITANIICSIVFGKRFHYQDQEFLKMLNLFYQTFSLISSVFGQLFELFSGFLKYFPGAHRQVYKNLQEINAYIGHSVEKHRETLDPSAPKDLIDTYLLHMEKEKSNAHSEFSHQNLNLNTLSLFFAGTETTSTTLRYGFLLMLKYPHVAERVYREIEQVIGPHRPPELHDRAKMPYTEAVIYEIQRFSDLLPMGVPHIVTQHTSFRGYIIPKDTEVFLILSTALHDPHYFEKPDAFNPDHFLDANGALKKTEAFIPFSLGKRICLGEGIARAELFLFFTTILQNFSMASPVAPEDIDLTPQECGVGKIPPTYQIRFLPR", "assay": "Supersome CYP2B6 kinetic incubations", "type": "in vitro ADME", "set-up": "purchased Corning (Amsterdam, The Netherlands); host or cells: baculovirus-transfected insect cells", "conditions": "for Scaled Vmax(app): CYP2B6 scaled to whole liver by Eq. 3; for Vmax (app) / Km: Supersome CYP2B6; for Km: human, recombinant CYP2B6 Supersomes, pH 7.4, Km(app)", "experimental": "(§1) The final incubations were carried out in 50 mM Tris–HCl (pH 7.4) containing 5 mM MgCl2, 1 mM EDTA (as an A-esterase PON1 inhibitor) (Bizoń and Milnerowicz [2018]), 50 µM iso-OMPA (as a B-esterases inhibitor) (Lane et al. [2006]), Supersome™ isoform (at final concentration of 0.005 nmol CYP/ml for 1A2, 0.001 nmol CYP/ml for 2B6, 0.01 nmol CYP/ml for 2C19, and 0.01 nmol CYP/ml for 3A4) and CPF at different final concentrations (0.05, 0.1, 0.25, 0.5, 1, 5 and 10 µM for 1A2, 0.05, 0.1, 0.25, 0.5, 1, 5 10 and 25 µM for 2B6, 1, 2.5, 5, 10, 25 and 50 µM for 2C19, and 0.5, 1, 2.5, 5, 10, 25 and 50 µM for 3A4), which were added from 100 times concentrated stock solutions in ACN. After 1 min preincubation in a 37 °C water bath, 5 µl NADPH (final concentration 1 mM) was added to the incubation system. Control incubations were performed by replacing NADPH with the same amount of Tris–HCl (pH 7.4). The total volume of the incubation mixtures was 200 µl. The incubations lasted for 2 min at 37 °C and were terminated by addition of 50 µl ice cold ACN and subsquently put on ice. After that, samples were centrifuged at 16,000 g (4 ℃) for 5 min and supernatants of samples were separated into two equal portions for Ultra-Performance Liquid Chromatography-Photodiode Array (UPLC-PDA) and Liquid Chromatography Mass Spectrometry (LC–MS/MS) analysis, respectively.\n(§2) To normalize for differences in intrinsic CYP activity between Supersome™ and pooled HLMs and enable scaling of the activities to the in vivo situation, CYP-specific ISEF values need to be established. […] The incubation method was similar as used for the CPF kinetic incubation assay described above, except that certain incubation conditions were replaced by the conditions listed in Table 1. The samples obtained were analyzed by UPLC-PDA for acetaminophen, 4-hydroxymephenytoin, and 6β-hydroxytestosterone formation catalyzed by 1A2, 2C19 and 3A4, or LC–MS/MS for (±)-hydroxybupropion formation catalyzed by 2B6.\n(§3) As mentioned before, the in vitro apparent kinetic parameters (Vmax and Km) for pathway 1 and pathway 2 in the HLM-based approach, and pathway 3 in both approaches were all obtained directly from reported studies using pooled HLMs (Buratti et al. [2003]; Sams et al. [2004]; Zhao et al. [2019]). Therefore, no extra calculations were required to define these parameters. The kinetic parameters for the ISEF calculation, pathway 1 and 2 in the Supersome™-based approach, and pathway 4 in both approaches (25 individuals) were all obtained by fitting the experimental data to the Michaelis–Menten model using GraphPad (GraphPad Prism 5.0 software, San Diego, CA, USA). It should be noted that the kinetic parameters for pathway 4 used in the two approaches were calculated as mean of the kinetic parameters (Vmax and Km) obtained using 25 individual HP samples (with correction for total protein concentration of each plasma sample).\n(§4) The in vivo Kmi values were assumed to be equal to the apparent Kmi(app) values (µM) obtained in the in vitro incubations, while the in vivo Vmaxi for each CYP isoform was derived from their corresponding apparent CYP isoform Vmaxi(app) (pmol/min/pmolCYP) using Eq. 3:3 Vmaxi=Vmaxiapp×CYPiabundance×ISEF×60×MPL×1000×VL/1,000,000,"}, "CYP2C19": {"target": "CYP2C19 (Homo sapiens, UniProt P33261)", "sequence (P33261 whole entry)": "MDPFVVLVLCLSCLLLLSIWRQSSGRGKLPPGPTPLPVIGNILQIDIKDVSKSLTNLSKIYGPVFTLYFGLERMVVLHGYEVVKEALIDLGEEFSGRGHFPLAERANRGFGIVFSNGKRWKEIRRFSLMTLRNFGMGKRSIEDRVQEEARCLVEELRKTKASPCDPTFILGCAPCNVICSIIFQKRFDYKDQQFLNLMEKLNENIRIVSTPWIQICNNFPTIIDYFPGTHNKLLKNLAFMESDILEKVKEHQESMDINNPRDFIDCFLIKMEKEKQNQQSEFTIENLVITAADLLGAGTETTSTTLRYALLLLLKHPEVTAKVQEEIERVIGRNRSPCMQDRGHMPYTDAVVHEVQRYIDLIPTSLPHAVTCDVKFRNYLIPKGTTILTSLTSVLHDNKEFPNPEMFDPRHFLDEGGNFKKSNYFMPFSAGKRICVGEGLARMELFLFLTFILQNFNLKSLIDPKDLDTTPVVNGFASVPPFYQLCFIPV", "assay": "Supersome CYP2C19 kinetic incubations", "type": "in vitro ADME", "set-up": "purchased Corning (Amsterdam, The Netherlands); host or cells: baculovirus-transfected insect cells", "conditions": "for Scaled Vmax(app): CYP2C19 scaled to whole liver by Eq. 3; for Vmax (app) / Km: Supersome CYP2C19; for Km: human, recombinant CYP2C19 Supersomes, pH 7.4, Km(app)", "experimental": "as §1, §2, §3, §4"}, "[1]": {"conditions": "Pathway 1 (bioactivation of CPF to CPO)"}, "[2]": {"conditions": "Pathway 2 (detoxification of CPF to TCPy)"}},
  "data": [
    {"smiles": "CCOP(=S)(OCC)Oc1nc(Cl)c(Cl)cc1Cl", "note": "[CPF, Chlorpyrifos]", "values": [
      {"measurement": "Scaled Vmax(app)", "setting": "CYP2B6; Pathway 1 (CPF to CPO)", "value": 203.94, "unit": "µmol/h"},
      {"measurement": "Vmax (app)", "setting": "CYP2B6; Pathway 1 (CPF to CPO)", "value": 7.76, "unit": "pmol/min/pmolCYP"},
      {"measurement": "Scaled Vmax(app)", "setting": "CYP2B6; Pathway 2 (CPF to TCPy)", "value": 144.28, "unit": "µmol/h"},
      {"measurement": "Vmax (app)", "setting": "CYP2B6; Pathway 2 (CPF to TCPy)", "value": 5.49, "unit": "pmol/min/pmolCYP"},
      {"measurement": "Km", "setting": "CYP2B6; [1]", "value": 0.14, "unit": "µM"},
      {"measurement": "Km", "setting": "CYP2B6; [2]", "value": 1.28, "unit": "µM"},
      {"measurement": "Scaled Vmax(app)", "setting": "CYP2C19; Pathway 1 (CPF to CPO)", "value": 10.81, "unit": "µmol/h"},
      {"measurement": "Vmax (app)", "setting": "CYP2C19; Pathway 1 (CPF to CPO)", "value": 2.74, "unit": "pmol/min/pmolCYP"},
      {"measurement": "Scaled Vmax(app)", "setting": "CYP2C19; Pathway 2 (CPF to TCPy)", "value": 69.06, "unit": "µmol/h"},
      {"measurement": "Vmax (app)", "setting": "CYP2C19; Pathway 2 (CPF to TCPy)", "value": 17.51, "unit": "pmol/min/pmolCYP"},
      {"measurement": "Km", "setting": "CYP2C19; [1]", "value": 1.89, "unit": "µM"},
      {"measurement": "Km", "setting": "CYP2C19; [2]", "value": 1.37, "unit": "µM"}
    ]}
  ]
}
